# Reference: patent US20180140545A1, “ANTIMICROBIAL PEPTIDE STIMULATING SANITIZING COMPOSITION” (GOJO Industries, Inc., priority 2016, published 2018)
# What was measured:
# Format in all cases: cell-based
# HBD-2 = HBD-2 ELISA, dose response in Neonatal Human Epidermal Keratinocytes; conditions: for HBD-2: NHEK, overnight (16 hours)
# Experimental: (§1) To determine the optimal dose of active ingredient, test dose response studies were run using both Decorinyl® and Pamitoyl Pentapeptided-3. These test dose response studies were commissioned to determine the concentration of HBD-2 at various levels of the active ingredients. Neonatal Human Epidermal Keratinocytes (NHEK; Life Technology, Grand Island, N.Y., USA) were cultured with keratinocyte growth medium (KGM, Medium 154: M-154-500 Life Technology with supplements S-001, Life Technologies). NHEK were seeded into 96-well plates at a density of 10000 cells in 200 μl medium per well. After 48 hours, the cells were incubated with varying concentrations of each ingredient solution in a culture medium (KGM) overnight (16 hours) at 37° C., 5% CO2 and 95% humidity at four replicates for each concentration. Each of these active ingredients were tested at the following weight percents based on the weight of the total culture: 0.02 wt. %, 0.05 wt. %, 0.1 wt. %, 0.2 wt. %, 0.5 wt. %, 1.0 wt. %, 2.0 wt. %. Each of these compositions was compared to a control culture medium.
# (§2) HBD-2 was detected using HBD-2 ELISA developing kits (commercially available from Peprotech). ELISA were performed according to the manufactory instructions of each kit by adding 100 μl/well of culture medium after overnight treatment. The substrate of ELISA reaction was using the substrate reagent from R&D Systems (DY999), and the reactions were stopped by adding 50 μl of 1N H2SO4 in each well. The results were measured using a colorimeter, absorbance was measured at 450 nanometers (nm) within 30 minutes. Wavelength correction was set to 570 nm. The concentration of each sample was calculated using ELISA standard curve.
# HBD-3 = HBD-3 ELISA, dose response in Neonatal Human Epidermal Keratinocytes; conditions: for HBD-3: NHEK, overnight (16 hours); for increase in HBD-3 production and/or activity: vs control culture medium
# Experimental: as §1, with “of HBD-3” for “of HBD-2”, “ingredients was” for “ingredients were”
# as §2, with “HBD-3” for “HBD-2”
# HBD-1 = HBD-1 ELISA, dose response in Neonatal Human Epidermal Keratinocytes; conditions: for HBD-1: NHEK, overnight (16 hours); for increase in HBD-1 production and/or activity: vs control culture medium
# Experimental: as §1, with “of HBD-1” for “of HBD-2”, “ingredients was” for “ingredients were”
# as §2, with “HBD-1 was detected” for “HBD-2 was detected”, “detected using HBD-1 ELISA (enzyme-linked” for “detected using HBD-2 ELISA developing”, “HBD-1 ELISA (enzyme-linked immunosorbent assay) developing kits” for “HBD-2 ELISA developing kits”
substance,measurement,setting,value
palmitoyl pentapeptide-3 [Pamitoyl Pentapeptided-3],HBD-2,HBD-2; 0.02% active ingredient,9 pg/mL
same,HBD-2,HBD-2; 0.05% active ingredient,8 pg/mL
same,HBD-2,HBD-2; 0.1% active ingredient,9 pg/mL
same,HBD-2,HBD-2; 0.2% active ingredient,14 pg/mL
same,HBD-2,HBD-2; 0.5% active ingredient,21 pg/mL
same,HBD-2,HBD-2; 1% active ingredient,72 pg/mL
same,HBD-2,HBD-2; 2% active ingredient,203 pg/mL
same,increase in HBD-2 production and/or activity,"HBD-2; 2.0 wt. %, vs control culture medium",2800%
same,HBD-3,HBD-3; 0.02% active ingredient,288 pg/mL
same,HBD-3,HBD-3; 0.05% active ingredient,242 pg/mL
same,HBD-3,HBD-3; 0.1% active ingredient,387 pg/mL
same,HBD-3,HBD-3; 0.2% active ingredient,775 pg/mL
same,HBD-3,HBD-3; 0.5% active ingredient,2278 pg/mL
same,HBD-3,HBD-3; 1% active ingredient,4783 pg/mL
same,increase in HBD-3 production and/or activity,HBD-3; 1.0 wt. %,1005%
same,HBD-3,HBD-3; 2% active ingredient,8617 pg/mL
same,increase in HBD-3 production and/or activity,HBD-3; 2.0 wt. %,1890%
same,HBD-1,HBD-1; 0.02% active ingredient,59 pg/mL
same,HBD-1,HBD-1; 0.05% active ingredient,57 pg/mL
same,HBD-1,HBD-1; 0.1% active ingredient,64 pg/mL
same,HBD-1,HBD-1; 0.2% active ingredient,85 pg/mL
same,HBD-1,HBD-1; 0.5% active ingredient,162 pg/mL
same,HBD-1,HBD-1; 1% active ingredient,259 pg/mL
same,increase in HBD-1 production and/or activity,HBD-1; 1.0 wt. %,311%
same,HBD-1,HBD-1; 2% active ingredient,1047 pg/mL
same,increase in HBD-1 production and/or activity,HBD-1; 2.0 wt. %,1561%
